The source of these data is US7332482B2, “Method for treating benign prostatic hyperplasia” (BioXell S.p.A., priority 2003, dated 2008).

Data set [1] concerns human bladder cells. The data set is described as follows: Bladder cell growth, basal and testosterone-stimulated. The data set is classed as cell-based.
Data set [2] is described as follows: Serum calcium measurement in rats. The data set is classed as in vivo, rat. The conditions noted are these: for calcemia: T-replaced castrated rats. The protocol:
Male Sprague Dawley rats (28 days old) were purchased from Charles River Laboratories (Calco, Lecco, Italy). All animal experimentation described was conducted in accord with accepted standards of animal care. Castration was performed via the scrotal route under ketamine/xylazine anaesthesia.
Serum calcium levels were measured with a commercially available colorimetric assay (Sigma), according to the manufacturers' instructions.

`C=C1/C(=C\C=C2/CCC[C@]3(C)C([C@@H](C)C/C=C/C(O)(CC)CC)=CC[C@@H]23)C[C@@H](O)C[C@@H]1F` [Compound A, 1-alpha-fluoro-25-hydroxy-16,23E-diene-26,27-bishomo-20-epi-cholecalciferol]: in data set [1], the “inhibition of basal and testosterone-stimulated growth of bladder cells” value is recorded as “effective in inhibiting”. The “effect on bladder cell growth compared with finasteride” value in data set [1] (T 10 nM, F 1 nM) is reported as “significantly greater than that of the anti-androgen finasteride”. The calcemia is 10.16 ± 0.24 mg/dL in data set [2] (10 μg/Kg), 9.87 ± 0.15 mg/dL in data set [2] (30 μg/Kg), 10.55 ± 0.18 mg/dL in data set [2] (100 μg/Kg) and 10.85 ± 0.1 mg/dL in data set [2] (300 μg/Kg). Moreover, the other side effects result in data set [2] (all rat protocols, oral) was “No other discernible side effects”. In addition, the hypercalcemia entry in data set [2] (all rat protocols, oral 10-300 μg/Kg) was “very modest hypercalcemia only at the highest dose tested”.
